Reference: patent publication US8124655B2, “Use of LR-90 and LR-102 to overcome insulin resistance” (City of Hope, priority 2007, dated 2012)

How the values were obtained:
Assay type in all cases: in vivo, rat
[1] = tested on: TGF-β1, CTGF, fibronectin and collagen IV; assay: Renal TGF-β1, CTGF and ECM proteins by RT-PCR, western blot and immunostaining
From the text: Tissue sections were deparaffinised by sequential exposure to xylene and ethanol, dehydrated and then exposed to H2O2 to eliminate endogenous peroxidase activity. The kidney sections were then blocked with 2% (wt/vol.) BSA and exposed to specific antibodies against AGE, AGER, TGF-β1, CTGF, fibronectin and collagen type IV. Biotinylated anti-rabbit or anti-mouse IgG was then applied as a secondary antibody, followed by horseradish peroxidase conjugated streptavidin. The staining was visualised by reaction with 3,3′-diaminobenzidine tetrahydrochloride and then counterstained with haematoxylin. All the sections were examined by light microscopy (Olympus AX70) and photographed with Retiga 2000R camera.
Renal cortical tissues were homogenised in PBS buffer with 1% (vol./vol.) Nonidet P-40, 0.5% (wt/vol.) sodium deoxycholate, 0.1% (wt/vol.) SDS and protease inhibitor mixture (Roche, Indianapolis, Ind., USA). Homogenates were centrifuged for 15 min at 4° C. and at 12,000 rpm and the supernatant fractions collected and stored at −70° C. Nuclear extracts were prepared as described previously. Protein concentrations were measured using the Bio-Rad DC Assay kit. Total RNA was isolated using the RNA-STAT-60 reagent (Tel-Test, Friendswood, Tex., USA). Western blot assay Protein samples (50 μg) were separated on 10 to 20% gradient Tris-glycine Criterion gels (Bio-Rad) and then transferred to nitrocellulose membranes. The membranes were blocked with 5% (wt/vol.) skimmed milk in PBS before incubation with anti-TGF-β1, anti-CTGF, anti-AGER, anti-phospho-p38 MAPK, anti-phospho-p44/42 MAPK and anti-p65 NF-κB antibodies. Immunoreactive proteins were detected by enhanced chemiluminescence (Western Lightning Chemiluminescence Reagent; Perkin-Elmer, Waltham, Mass., USA) using horseradish peroxidase-labelled secondary antibodies. Equal amounts of protein loading were confirmed by restaining the membranes with antibodies against β-actin, p38 MAPK or p44/42 MAPK for cytosolic extracts or with histone H2B for nuclear extracts. Band intensities were quantified using a densitometer (Quantity One, Bio-Rad). Reverse transcriptase-polymerase chain reaction Total RNA (1 μg) was used for the RT reaction using the GeneAmp RNA PCR kit (Applied Biosystems, Foster City, Calif., USA). Total cDNA was then used in PCR reactions containing gene specific primers [Electronic supplementary material (ESM) Table 1] paired with Quantum 18S rRNA internal standards (Ambion, Austin, Tex., USA). Multiplex PCR reactions were performed in a GeneAmp 9700 (Applied Biosystems). […] The densities of amplified products corresponding to specific genes and 18S rRNA were quantified with Quantity One software (Bio-Rad). Results are expressed as the means of the ratios of Tgfb1, Ctgf or Ager band densities to the 18S rRNA band density.

[2] = tested on: Cybb, the gene encoding for the gp91phox subunit of NADPH; assay: Kidney expression of Cybb (data not shown); conditions: ZDF rats
CML-AGE, AGER = assay: Plasma and renal AGE and AGER; conditions: ZDF rats
Experimental: All animal studies were carried out in compliance with policies outlined in The Guide for the Care and Handling of Laboratory Animals (NIH Publication No. 85-23) that have been approved by the City of Hope Animal Care Committee. Male ZDF (fa/fa) and male Zucker lean (+/+; ZL) rats were obtained at the age of 5 weeks from Charles River Laboratories (Wilmington, Mass., USA). Animals were maintained with free access to Purina 5008 rat chow (Purina Mills, St Louis, Mo., USA) and tap water. All animals were individually housed in a controlled room with a 12 h dark-light cycle. At the age of 13 weeks, the animals were divided into the following groups: (1) ZL rats (n=6); (2) ZDF rats without treatment (n=6); and (3) ZDF rats treated with LR-90 at 50 mg/l in their drinking water (ZDF90, n=6). The dose of LR-90 was chosen after previous experiments with type 1 diabetic nephropathy. Food, water intake, body weight and blood glucose levels were monitored periodically. Systolic blood pressure was measured by tail-cuff plethysmography (CODA2 Blood Pressure System; Kent Scientific, Torrington, Conn., USA). […] Plasma glucose, lipids and Nε-(carboxymethyl)lysine-AGE Plasma glucose was measured using a glucose analyzer (2300 STAT; YSI, Yellowsprings, Ohio, USA). Total plasma triacylglycerol and cholesterol concentrations were quantified using the Vitros 250 Chemistry System (Johnson & Johnson, Rochester, N.Y., USA). Nε-(Carboxymethyl)lysine (CML)-AGE was liberated from plasma proteins by acid hydrolysis and then measured by ion-pair reversed-phase liquid chromatography/tandem mass spectrometry as described previously. […]
Renal cortical tissues were homogenised in PBS buffer with 1% (vol./vol.) Nonidet P-40, 0.5% (wt/vol.) sodium deoxycholate, 0.1% (wt/vol.) SDS and protease inhibitor mixture (Roche, Indianapolis, Ind., USA). […] Protein concentrations were measured using the Bio-Rad DC Assay kit. […] Immunoreactive proteins were detected by enhanced chemiluminescence (Western Lightning Chemiluminescence Reagent; Perkin-Elmer, Waltham, Mass., USA) using horseradish peroxidase-labelled secondary antibodies. […]

[3] = kidneys of ZDF rats, to almost similar levels as in ZL rats

## CC(C)(Oc1ccc(NC(=O)Nc2ccc(Cc3ccc(NC(=O)Nc4ccc(OC(C)(C)C(=O)O)cc4)c(Cl)c3)cc2Cl)cc1)C(=O)O [LR-90, methylene bis[4,4′-(2-chlorophenylureidophenoxyisobutyric acid)]]
[1]; kidneys of ZDF animals
  mRNA expression and protein production of CTGF: significantly attenuated
  mRNA expression and protein production of TGF-β1: significantly attenuated
[1]; [3]
  positive immunostaining for collagen IV: markedly reduced
  positive immunostaining for fibronectin: markedly reduced
[2]
  increased kidney expression of Cybb: attenuated
CML-AGE, AGER; RT-PCR and immunostaining
  Ager mRNA and protein in kidney tissues: markedly abrogated
CML-AGE, AGER; immunohistochemistry
  AGE accumulation in kidney tissues: markedly abrogated
CML-AGE, AGER; p<0.01, LC/tandem MS
  attenuation of circulating plasma CML-AGE concentration: 22%
